Experimental data as given in patent US6787570B2, “Substituted N-cycloalkyl-N-benzyl aminoalcohol compounds useful for inhibiting cholesteryl ester transfer protein activity” (Pfizer, Inc., priority 1999, dated 2004).

molecular target: T1, Human recombinant CETP (Homo sapiens, UniProt P11597); assay: Assay of CETP Inhibition Using Purified Components (Reconstituted Buffer Assay); assay type: biochemical; details: transfer of [3H]CE from HDL to LDL, 2 hours at 37° C.
T1 construct: made in house; host or cells: CHO cells (serum-free conditioned medium)
T1 sequence (P11597 18-493): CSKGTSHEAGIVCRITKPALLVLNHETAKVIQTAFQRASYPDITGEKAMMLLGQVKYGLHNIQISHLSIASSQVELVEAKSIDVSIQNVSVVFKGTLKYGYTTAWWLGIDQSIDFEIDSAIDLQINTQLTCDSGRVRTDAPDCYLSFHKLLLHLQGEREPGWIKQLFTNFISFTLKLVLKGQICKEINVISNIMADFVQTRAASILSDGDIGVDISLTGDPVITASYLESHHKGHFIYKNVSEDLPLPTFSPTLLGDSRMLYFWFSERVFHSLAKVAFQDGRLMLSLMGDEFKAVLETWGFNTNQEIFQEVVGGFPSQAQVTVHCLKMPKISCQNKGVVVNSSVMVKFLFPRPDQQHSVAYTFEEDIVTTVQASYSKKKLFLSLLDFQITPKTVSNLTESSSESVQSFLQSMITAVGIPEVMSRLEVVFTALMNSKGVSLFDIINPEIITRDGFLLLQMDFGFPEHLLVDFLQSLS
Procedure: Assay of CETP Inhibition Using Purified Components (Reconstituted Buffer Assay)
The ability of compounds to inhibit CETP activity was assessed using an in vitro assay that measured the rate of transfer of radiolabeled cholesteryl ester ([^3H]CE) from HDL donor particles to LDL acceptor particles. Details of the assay are provided by Glenn, K. C. et al. (Glenn and Melton, “Quantification of Cholesteryl Ester Transfer Protein (CETP): A) CETP Activity and B) Immunochemical Assay of CETP Protein,” Meth. Enzymol., 263, 339-351 (1996)). Human recombinant CETP can be obtained from the serum-free conditioned medium of CHO cells transfected with a cDNA for CETP and purified as described by Wang, S. et al. (J. Biol. Chem. 267, 17487-17490 (1992)). To measure CETP activity, [^3H]CE-labeled-HDL, LDL, CETP and assay buffer (50 mM tris(hydroxymethyl)aminomethane, pH 7.4; 150 mM sodium chloride; 2 mM ethylenediamine-tetraacetic acid (EDTA); 1% bovine serum albumin) were incubated in a final volume of 200 μL, for 2 hours at 37° C. in 96 well plates. Inhibitors were included in the assay by diluting from a 10 mM DMSO stock solution into 16% (v/v) aqueous DMSO so that the final concentration of inhibitor was 800 μM. The inhibitors were then diluted 1:1 with CETP in assay buffer, and then 25 μL of that solution was mixed with 175 μL of lipoprotein pool for assay. Following incubation, LDL was differentially precipitated by the addition of 50 μL of 1% (w/v) dextran sulfate/0.5 M magnesium chloride, mixed by vortex, and incubated at room temperature for 10 minutes. A potion of the solution (200 μL) was transferred to a filter plate (Millipore). After filtration, the radioactivity present in the precipitated LDL was measured by liquid scintillation counting. […] The rate of [^3H]CE transfer using this assay was linear with respect to time and CETP concentration, up to 25-30% of [^3H]CE transferred.
The potency of test compounds was determined by performing the above described assay in the presence of varying concentrations of the test compounds and determining the concentration required for 50% inhibition of transfer of [3H]CE from HDL to LDL. This value was defined as the IC50. The IC50 values determined from this assay are accurate when the IC50 is greater than 10 nM.

CC1CCC(N(Cc2cccc(C(F)(F)F)c2)CC(O)C(F)(F)F)CC1 (stereo not drawn) [Example 1, 3-[(4-methylcyclohexyl)[[(3-trifluoromethyl)phenyl]methyl]amino]-1,1,1-trifluoro-2-propanol] and OC(CN(Cc1cccc(OC(F)(F)F)c1)C1CC1)C(F)(F)F (stereo not drawn) [Example 4] are within 1.5-fold of each other in IC50: 15 µM for the first, 20 µM for the second.

CC(C)N(Cc1cccc(OC(F)(F)F)c1)CC(O)C(F)(F)F (stereo not drawn) [Example 5] and CCCN(Cc1cccc(OC(F)(F)F)c1)CC(O)C(F)(F)F (stereo not drawn) [Example 6] cannot be ordered by IC50: > 100 µM for the first, > 100 µM for the second.

First: CC(C)=CCN(CC(O)C(F)(F)F)c1cccc(OC(F)(F)F)c1 (stereo not drawn) [Example 8]
Second: COC(=O)C=CCN(CC(O)C(F)(F)F)c1cccc(OC(F)(F)F)c1 (stereo not drawn) [Example 13]
The IC50 of the first is 1.8-fold lower: 45 µM for the first, 80 µM for the second.

First: CCCCCC=CCN(CC(O)C(F)(F)F)c1cccc(OC(F)(F)F)c1 (stereo not drawn) [Example 9]
Second: COCC=CCN(CC(O)C(F)(F)F)c1cccc(OC(F)(F)F)c1 (stereo not drawn) [Example 14]
The IC50 of the first is 3.1-fold lower: 18 µM for the first, 55 µM for the second. The first is the more potent here.

C#CCN(CC(O)C(F)(F)F)c1cccc(OC(F)(F)F)c1 (stereo not drawn) [Example 10] and CC(C)CCN(CC(O)C(F)(F)F)c1cccc(OC(F)(F)F)c1 (stereo not drawn) [Example 11] are within 1.5-fold of each other in IC50: 50 µM for the first, 45 µM for the second.

C=C(CN(CC(O)C(F)(F)F)c1cccc(OC(F)(F)F)c1)C(=O)OC (stereo not drawn) [Example 12] and OC(CN(Cc1ccc(OC(F)(F)F)cc1)CC(O)C(F)(F)F)C(F)(F)F (stereo not drawn) [Example 17] are the same in IC50: 60 µM for the first, 60 µM for the second.

Compared with OC(CN(Cc1ccccc1)CC(O)C(F)(F)F)C(F)(F)F (stereo not drawn) [Example 15, 1,1′-[(Phenylmethyl)imino]bis[3,3,3-trifluoro-2-propanol]], OC(CN(Cc1cccc(C(F)(F)F)c1)CC(O)C(F)(F)F)C(F)(F)F (stereo not drawn) [Example 16] is lower in IC50: > 100 µM for the first, 15 µM for the second. The second is the more potent here.

For CCc1cc(Oc2cccc(N(CC3CCCCC3)CC(O)C(F)(F)F)c2)ccc1Cl (stereo not drawn) [Example 18, 3-[[3-(4-chloro-3-ethylphenoxy)phenyl][3-cyclohexylmethyl]amino]-1,1,1-trifluoro-2-propanol], the IC50 was 11 µM.
